In patent US9555036B2, “Pyrazolopyrimidine compounds” (GlaxoSmithKline LLC, priority 2012, dated 2017):
Where a name gives a salt, the structure may show the parent alone.

System: TNF-α
Assay: Induction of TNF-α using fresh human whole blood (WB)
Type: cell-based
Settings: three donors, overnight incubation, cytokine as % of 2 μM resiquimod control, read-out: mean pEC50 for TNF-α (converted)
Procedure: Assay for the Induction of Interferon-α and TNF-α Using Fresh Human Whole Blood (WB) Compound Preparation
Compounds were prepared at 100× required concentration in DMSO in flat-bottom microtitre plates at a volume of 1.5 μL. Columns 1-10 contained a 1 in 4 serial dilution of the test compound. Included on each plate was a serial dilution of the TLR7/8 agonist resiquimod as a standard and Column 11 contained 1.5 μl of 200 μM resiquimod (giving a 2 μM final concentration, used to define the approximate maximal response to resiquimod). Each compound was assayed in duplicate for each donor.
Incubation and Assays for Interferon-α and TNF-α
Blood samples from three human donors were collected into sodium heparin (10 U/ml). 150 μl of whole Blood was dispensed into Col 1 to 11 of assay plates containing 1.5 μl of test compound or standard in DMSO. Plates were placed in an incubator overnight (37° C., 95% air, 5% CO2). Following the overnight incubation, plates were removed from the incubator & mixed on an orbital shaker for approximately 1 minute. 100 μl of 0.9% saline was added to each well and the plates mixed again on an orbital shaker. Plates were then centrifuged (2500 rpm, 10 mins), after which a sample of plasma was removed using a Biomek FX and assayed for both IFN-α and TNF-α using the MSD (Mesoscale Discovery) electrochemiluminescence assay platform. The IFN-α assay was carried out similarly to that described above. The TNF-α assay was carried out as per kit instructions (Cat No K111BHB).
Cytokine released was expressed as a percentage of the 2 μM resiquimod control (column 11). This percentage was plotted against compound concentration and the pEC50 for the response determined by non-linear least squares curve fitting. For the IFN-α responses, generally a 4 parameter logistic model was selected. For the TNF responses where a clear maximum response was obtained (i.e. a well defined plateau in the response was observed) then a 4 parameter model was generally used. If the upper asymptote of the curve wasn't well defined then the curve fitting was generally constrained to a maximal response of 100% (i.e. to the response to 2 μM resiquimod) or to the response of the highest concentration tested if this was greater than the resiquimod response. Some curves were bell shaped for one or both cytokines and the cytokine data on the down slope of the bell shaped response (i.e. concentrations above those giving the maximal response) were generally excluded from the fit, usually with the exception of the concentration immediately above the peak response. Curve fitting thus concentrated on the up slope of the dose response curve.

Structure (SMILES)	EC50 [µM]
CCCCc1nc(N)c2[nH]nc(CCCCCCN3CCCCC3)c2n1 [Example 1, 5-Butyl-3-(6-(piperidin-1-yl)hexyl)-1H-pyrazolo[4,3-d]pyrimidin-7-amine formate]	≤ 3.98
COCCc1nc(N)c2[nH]nc(CCCCCCN3CCCCC3)c2n1 [Example 2, 5-(2-Methoxyethyl)-3-(6-(piperidin-1-yl)hexyl)-1H-pyrazolo[4,3-d]pyrimidin-7-amine]	≤ 3.98
COCCc1nc(N)c2[nH]nc(CCCCCCN3CCCC3)c2n1 [Example 4, 5-(2-Methoxyethyl)-3-(6-(pyrrolidin-1-yl)hexyl)-1H-pyrazolo[4,3-d]pyrimidin-7-amine]	≤ 3.98
CCCCc1nc(N)c2[nH]nc(CCCCCN3CCCCC3)c2n1 [Example 5, 5-Butyl-3-(5-(piperidin-1-yl)pentyl)-1H-pyrazolo[4,3-d]pyrimidin-7-amine]	≤ 3.98
CCCCc1nc(N)c2[nH]nc(CCCCCN3CCCC3)c2n1 [Example 6, 5-Butyl-3-(5-(pyrrolidin-1-yl)pentyl)-1H-pyrazolo[4,3-d]pyrimidin-7-amine]	≤ 3.98
CCCCc1nc(N)c2[nH]nc(CCCCCCCN3CCCCC3)c2n1 [Example 7, 5-Butyl-3-(7-(piperidin-1-yl)heptyl)-1H-pyrazolo[4,3-d]pyrimidin-7-amine]	≤ 3.98
CCCCc1nc(N)c2[nH]nc(CCCCCCCN3CCCC3)c2n1 [Example 8, 5-Butyl-3-(7-(pyrrolidin-1-yl)heptyl)-1H-pyrazolo[4,3-d]pyrimidin-7-amine]	≤ 3.98
CCCCc1nc(N)c2[nH]nc(CCCCCCN3CCCCCC3)c2n1 [Example 9, 3-(6-(Azepan-1-yl)hexyl)-5-butyl-1H-pyrazolo[4,3-d]pyrimidin-7-amine]	≤ 3.98
CCCCc1nc(N)c2[nH]nc(CCCCCN3CCCCCC3)c2n1 [Example 10, 3-(5-(Azepan-1-yl)pentyl)-5-butyl-1H-pyrazolo[4,3-d]pyrimidin-7-amine]	≤ 3.98
CCCCc1nc(N)c2[nH]nc(CCCCCCN3CC[C@H](F)C3)c2n1 [Example 11, (S)-5-Butyl-3-(6-(3-fluoropyrrolidin-1-yl)hexyl)-1H-pyrazolo[4,3-d]pyrimidin-7-amine]	≤ 3.98
CCCCc1nc(N)c2[nH]nc(CCCCCN3CC[C@H](F)C3)c2n1 [Example 12, (S)-5-Butyl-3-(5-(3-fluoropyrrolidin-1-yl)pentyl)-1H-pyrazolo[4,3-d]pyrimidin-7-amine]	≤ 3.98
CCCCc1nc(N)c2[nH]nc(CCCCCCN3CC[C@@H](F)C3)c2n1 [Example 13, (R)-5-Butyl-3-(6-(3-fluoropyrrolidin-1-yl)hexyl)-1H-pyrazolo[4,3-d]pyrimidin-7-amine formate]	≤ 3.98
CCCCc1nc(N)c2[nH]nc(CCCCCN3CC[C@@H](F)C3)c2n1 [Example 14, (R)-5-Butyl-3-(5-(3-fluoropyrrolidin-1-yl)pentyl)-1H-pyrazolo[4,3-d]pyrimidin-7-amine]	≤ 3.98
CCCCc1nc(N)c2[nH]nc(CCCCCCN3CCC(O)CC3)c2n1 [Example 15, 1-(6-(7-Amino-5-butyl-1H-pyrazolo[4,3-d]pyrimidin-3-yl)hexyl)piperidin-4-ol]	≤ 3.98
CCCCc1nc(N)c2[nH]nc(CCCCCN3CCC(O)CC3)c2n1 [Example 16, 1-(5-(7-Amino-5-butyl-1H-pyrazolo[4,3-d]pyrimidin-3-yl)pentyl)piperidin-4-ol]	≤ 3.98
CCCCc1nc(N)c2[nH]nc(CCCCCCN3CCC(F)CC3)c2n1 [Example 17, 5-Butyl-3-(6-(4-fluoropiperidin-1-yl)hexyl)-1H-pyrazolo[4,3-d]pyrimidin-7-amine formate]	≤ 3.98
CCCCc1nc(N)c2[nH]nc(CCCCCN3CCC(F)CC3)c2n1 [Example 18, 5-Butyl-3-(5-(4-fluoropiperidin-1-yl)pentyl)-1H-pyrazolo[4,3-d]pyrimidin-7-amine]	≤ 3.98
